Read-outs that look alike come from different tables or passages of the source.
Experiments:
MT-4 cells = experiment: Cytotoxicity in mock-infected MT-4 cells (trypan blue exclusion / MTT method); assay type: cell-based; details: for HIV (µM) TD₅₀: human, 5 days
Description: (§1) The anti-HIV activity of the agents that are subject of the present invention was measured according to the method of E. De Clercq et al. (The Journal of Virological Methods, 16 : 171 - 185 (1987) and The Journal of Virological Methods, 20 : 309-321 (1988)).
(§2) MT-4 cells of a 24 hours-old culture were suspended at 5 x 10⁵ cells per ml. Of this suspension, 2-ml portions were divided over polyisopropylene 2059 Falcon culture tubes (Becton Dickinson). The MT-4 cell suspensions were then centrifuged for 10 min at 140 x g and the supernatants were discarded. The MT-4 cell pellets were infected with 200 µl of a 1:5 HIV stock solution (titer 10³ CCID₅₀ ml; i.e., finally 10 CCID₅₀ well) in RPMI medium (composition as described above). Control MT-4 cell pellets were mock-infected with 200 µl RPMI medium. The culture tubes were then capsulated and subsequently incubated at 37 °C for 1.5 hours, upon which 1.8 ml of RPMI medium was added to each tube. The HIV-infected and mock-infected MT-4 cells were each pooled in two 45-ml centrifuge tubes.
(§3) Varying dilutions of the test compounds in RPMI medium were added in 100-µl volumes to the wells of a flat bottom, 96-well plastic microtiter tray (Sterilin Ltd. Teddington, Middlesex, England).
(§4) Of the HIV-infected or mock-infected MT-4 cell suspensions 100-µl volumes were added to the wells. The cell cultures were then incubated at 37 °C in a 5 % CO₂/95 % air humidified atmosphere. The cells remained in contact with the test compounds during the whole incubation period. Five days after infection the viability of the cells was examined microscopically in a hematocytometer by the trypan blue dye exclusion method.
(§5) Alternatively, viability of the cells was determined by the tetrazolium-based colorimetric method (MTT method) as described in the Journal of Virological Methods, 20 : 309 - 321 (1988).
(§6) Flat bottom, 96-well plastic mictrotiter trays (Falcon, Becton Dickinson, Mountain View, CA) were filled with 100 µl of complete medium using a Titertek® Multidrop dispenser (Flow Laboratories). This eight-channel dispenser could fill a microtiter tray in less than 10 s. Subsequently, stock solutions (10 x final test concentration) of compounds were added in 25 µl volumes to two series of triplicate wells so as to allow simultaneous evaluation of their effects on HIV- and mock-infected cells. Serial five-fold dilutions were made directly in the microtiter trays using an eight-channel Titertek® pipette (FLow Laboratories). Untreated control HIV- and mock-infected cell samples were included for each compound.
(§7) Exponentially growing MT-4 cells were centrifuged for 10 min at 140 x g and the supernatants were discarded. The pellet was either infected with 100 CCID₅₀ or mock-infected. The MT-4 cells were resuspended at 4 x 10⁵ cells/ml in two flasks which were connected with an autoclavable dispensing cassette of a Titertek® Multidrop dispenser. Under slight magnetic stirring 100-µl volumes were then transferred to the microtiter tray wells. The outer row wells were filled with 100 µl of medium. The cell cultures were incubated at 37 °C in a humidified atmosphere of 5 % CO₂ in air. The cells remained in contact with the test compounds during the whole incubation period. Five days after infection the viability of mock- and HIV infected cells was examined either microscopically in a hemacytometer by the trypan blue exclusion method or spectrophotometrically by the MTT method.
(§8) The MTT method is based on the reduction of the yellow coloured 3-(4,5-dimethylthiazol-2-yl)-2,5-diphenyltetrazolium bromide (MTT) (Sigma Chemical Co., St. Louis, MO) by mitochondrial dehydrogenases of metabolically active cells to a blue formazan which can be measured spectrophotometrically. Therefore, to each well of the microtiter trays, 20 µl of a solution of MTT (7.5 mg/ml) in phosphate-buffered saline was added using the Titertek® Multidrop. The trays were further incubated at 37 °C in a CO₂ incubator for the indicated times. […]

HIV = experiment: Anti-HIV assay: protection of HIV-infected MT-4 cells against cytopathic effect (trypan blue exclusion / MTT method); assay type: cell-based
Description: as §1, §2, §3, §4, §5, §6, §7, §8

[1] = Human immunodeficiency virus 1, MT4, 120 h, HIV-infected MT-4 cells, five days after infection, MTT method, dose achieving 50 % protection, read-out: HIV (µM) ED₅₀
[2] = Human immunodeficiency virus 1, MT4, effective amount necessary for permitting the cells infected with HIV to live to the 5th day after infection, read-out: ED₅₀

Row | SMILES | EC50 (HIV; [1]) [µM] | EC50 (HIV; [2]) [µM] | HIV (µM) TD₅₀ (MT-4 cells) [µM] | cytotoxicity (MT-4 cells; at the concentration of 500 µM) | cytotoxicity (MT-4 cells; at the concentration of 125 µM)
1 | NO[C@H]1C[C@H](n2cnc3c(N)ncnc32)O[C@@H]1CO [compound 4, 9-(3-O-amino-2-deoxy-β-D-erythro-pentofuranosyl)adenine] | 32 | 32 | 1000 |  | 
2 | NO[C@H]1C[C@H](n2ccc(N)nc2=O)O[C@@H]1CO [3′-O-amino-2′-deoxycytidine] |  | 61 |  | no cytotoxicity appeared | 
3 | Cc1cn([C@H]2C[C@H](ONC=O)[C@@H](CO)O2)c(=O)[nH]c1=O [compound 1, 3′-O-formamidothymidine] | 13 |  | 144 |  | 
4 | C=NO[C@H]1C[C@H](n2cc(C)c(=O)[nH]c2=O)O[C@@H]1CO [compound 2, 3′-O-methylideneaminothymidine] | 17 |  | 106 |  | 
5 | NO[C@H]1C[C@H](n2cnc3c(=O)[nH]c(N)nc32)O[C@@H]1CO [compound 5, 9-(3-O-amino-2-deoxy-β-D-erythro-pentofuranosyl)guanine] | 2.17 |  | 74.03 |  | 

Now from value to molecule, other results behind:

Row | EC50 (HIV; [1]) [µM] | EC50 (HIV; [2]) [µM] | SMILES | HIV (µM) TD₅₀ (MT-4 cells) [µM] | cytotoxicity (MT-4 cells; at the concentration of 500 µM) | cytotoxicity (MT-4 cells; at the concentration of 125 µM)
6 |  | 23 | Cc1cn([C@H]2C[C@H](ON)[C@@H](CO)O2)c(=O)[nH]c1=O [3′-O-aminothymidine] |  |  | only slight cytotoxicity appeared
7 | 32 |  | CC(C)=NO[C@H]1C[C@H](n2cc(C)c(=O)[nH]c2=O)O[C@@H]1CO [compound 3, 3′-O-isopropylideneaminothymidine] | 313 |  | 

From patent publication EP0381335A1, “Antiviral agent and novel nucleoside” (TANABE SEIYAKU CO., LTD., priority 1989, dated 1990)
